Test results taken from patent US6544542B1, “Fat emulsions for inhalational administration” (Nippon Shinyaku Co., Ltd., priority 1998, dated 2003).

Assay: Test Example 7: influence of the solubilization-effective surfactant concentration on nebulizer sprayability
Type: physicochemical

Substance	nebulizer sprayability, CA	nebulizer sprayability, Dexamethasone palmitate	nebulizer sprayability, Guaiazulene
Triton X100	Infeasible		
Tween-80	Infeasible	Infeasible	Infeasible
